Measurements published in patent US20020156325A1, “Asymmetric beta-ketoiminate ligand compound, preparation method thereof, and organometal percursor comprising the same” (priority 2001, published 2002).

Assay: Thermal gravimetric analysis at atmospheric pressure
Type: physicochemical

| Substance | solid residue left after vaporization or decomposition | temperature at which the metal complex was vaporized or decomposed | residue left after vaporization or decomposition (in words) (at 290° C.) |
| --- | --- | --- | --- |
| Ti[CH3COCHCN(CH2CH2OH)2CH2CH3]2 [Example 6] | about 12% | about 380 °C |  |
| Ti [CH3COCHCNH (CH2CH (CH3) OH) CH2CH3]2 [Example 4] |  | 290 °C | little residue |
| Ti[CH3COCHCNH(CH2CH2OH)CH2CH3]2 [Example 5] | 7% | about 330 °C |  |
